# Test results reported in patent US12011475B2, “Polypeptide, polypeptide fragment, derivative thereof, and applications thereof” (CHENGDU HUITAI BIOMEDICINE CO., LTD., priority 2017, dated 2024).
# Ends that are not written are not given here.
# Key:
# Format in all cases: in vivo
# active TGF-β = experiment: Active TGF-β content in rat lung tissue by ELISA (Example 27); settings: active TGF-β/total TGF-β; intravenous injection 10 mg/kg once a day, 4th to 13th day after bleomycin 4 mg/kg; Mean ± SEM
# Protocol: The rat lung tissue in the model group, the control group and the N4 treatment group of Example 9 was taken, and homogenized using RIPA lysate (100 mg of lung tissue corresponding to 1 mL of lysate), centrifuged and the supernatant was taken, and then the protein concentration was determined by BCA method. Equal amounts of protein samples were taken and the active TGF-β content was measured by enzyme-linked immunosorbent assay ELISA (Promega, Cat. No. G7591) (the result is shown in FIG. 10), and one-way ANOVA was used for biostatistical analysis.
# (§1) The rats were weighed before administration, intramuscularly injected with 65 mg/kg Zoletil anesthetic solution. After the rats entered the stage III anesthesia, the experimental rats were fixated in the lateral decubitus. Gavage needle size 12 was inserted into rat trachea through oral cavity along the glottis to instill sterile saline or bleomycin (4 mg/kg) (Day 0). After the anesthesia, the rats in control group were intratracheally instilled with an equal volume of sterile saline, and the rats in model group and treatment groups were intratracheally instilled with bleomycin (4 mg/kg). […]
# The rat lung tissue in the model group, the control group and the treatment groups of Example 20 was taken, and the active TGF-β content was measured by ELISA. […]
# [1] = tested on: rat with pulmonary fibrosis induced by bleomycin; experiment: Lung coefficient, intravenous injection (Example 22); settings: lung mass (mg)/body weight (g); intravenous injection 10 mg/kg once a day, 4th to 13th day after bleomycin 4 mg/kg; Mean ± SEM
# Protocol: (§2) The rats in Example 2 were weighed and sacrificed by anesthesia overdose. Lung tissue of both sides of the rats was taken, and the connective tissue around the lung tissue was carefully removed. After washing with saline and dried with a filter paper, the wet weight of the whole lung was weighted by an electronic balance. After the wet weight of the whole lung was weighted by the electronic balance, the lung coefficient was calculated according to the formula, lung coefficient=lung mass (mg)/body weight (g) (the result is shown in FIG. 1).
# as §1
# The experimental rats of the control group, the model group and the treatment groups of Example 20 were taken, the lung weight was measured and the lung coefficient was calculated. […]
# tgf-β = experiment: mRNA content of tgf-β in rat lung tissue by qPCR (Example 26); settings: 18S RNA internal reference; intravenous injection 10 mg/kg once a day, 4th to 13th day after bleomycin 4 mg/kg; Mean ± SEM
# Protocol: as §1, with “mg/kg). On the 4th day, the sterile saline or peptide drug was injected through the tail vein once a day until the 13th day. The rats were sacrificed on the 14th day for subsequent experiments.” for “mg/kg).”
# The rat lung tissue in the control group, the model group and the treatment groups of Example 20 was taken. […] After obtaining cDNA using reverse transcription, fluorescence quantitative PCR (qPCR) kit (Applied Biosystems, Cat. No. 4319413E) was used to detect the mRNA content of tgf-β (forward primer: GAGGTGACCTGGGCACCAT, reverse primer: GGCCATGAGGAGCAGGAA), 18S RNA was used as an internal reference, and the result is shown in the tgf-β values in Table 4.
# [2] = tested on: rat with pulmonary fibrosis induced by bleomycin; experiment: HE staining score, intravenous injection (Example 23); settings: inflammatory pathology score, grade 0 to 3; intravenous injection 10 mg/kg once a day, 4th to 13th day after bleomycin 4 mg/kg; Mean ± SEM
# Excerpt: (§3) The lung tissue of the rats of Example 2 was taken, fixed with 4% paraformaldehyde and embedded in paraffin. The wax block embedded the lung tissue was sectioned along the largest cross section. Pathological changes in lung tissue were observed using hematoxylin-eosin (HE) staining. Pathological changes in lung tissue were observed under a light microscope (low magnification) at a magnification of 100 times (the result is shown in FIG. 2).
# (§4) According to the method provided by Szapie, et al., the degree of alveolitis was graded according to the range of lesions and could be divided into 0 to 3 grades, corresponding to 0 to 3 points. The evaluation indexes for the degree of alveolitis are as follows: grade 0, no alveolitis; grade 1, mild alveolitis, manifested as a slight increase in alveolar septum, infiltration of monocytes, near the pleura or localized, with a lesion range of less than 20% without alveolar structural damage; grade 2, moderate alveolitis, the lesion ranges from 20% to 50%, relatively severe near the pleura; grade 3, severe alveolitis, diffusely distributed, the lesion range is more than 50%, with pulmonary parenchymal lesion occasionally.
# The rats were weighed before administration, intramuscularly injected with 65 mg/kg Zoletil anesthetic solution. After the rats entered the stage III anesthesia, the experimental rats were fixated in the lateral decubitus. […]
# [3] = tested on: rat with pulmonary fibrosis induced by bleomycin; experiment: Hydroxyproline content in rat lung tissue, acid hydrolysis, intravenous injection (Example 25); settings: intravenous injection 10 mg/kg once a day, 4th to 13th day after bleomycin 4 mg/kg; Mean ± SEM
# Protocol: as §1, with “mg/kg). On the 4th day, the sterile saline or peptide drug was injected through the tail vein once a day until the 13th day. The rats were sacrificed on the 14th day for subsequent experiments. The rats in the control group were received no drug treatment; the rats in the model group were injected with sterile saline through the tail vein; the rats in the treatment groups were injected with corresponding peptide drug (10 mg/kg) through the tail vein.” for “mg/kg).”
# The lung tissue in the model group, the control group and the treatment groups of Example 20 was taken, and the hydroxyproline content in lung tissue was detected using BioVision Hydroxyproline Acid Hydrolysis Assay Kit (Cat. No. K555-100), the result is shown in the HYP values in Table 4.
# [4] = tested on: rat with pulmonary fibrosis induced by bleomycin; experiment: HE staining score, intratracheal instillation (Example 18); settings: inflammatory pathology score, grade 0 to 3, 8 mg/kg peptide + 4 mg/kg bleomycin, Mean ± SEM
# Excerpt: as §3
# as §4, with “occasionally. […]” for “occasionally.”
# [5] = tested on: rat with pulmonary fibrosis induced by bleomycin; experiment: Lung coefficient, intratracheal instillation (Example 17); settings: lung mass (mg)/body weight (g), 8 mg/kg peptide + 4 mg/kg bleomycin, Mean ± SEM
# Protocol: as §2
# The rats in model group were intratracheally instilled with bleomycin (4 mg/kg); after anesthesia, the rats in treatment groups were intratracheally instilled with bleomycin (4 mg/kg) and corresponding therapeutic drug (8 mg/kg) simultaneously. The remaining implementation steps were the same as the description of Example 9.
# The experimental rats of the control group, the model group and the treatment groups of Example 15 were taken to determine the lung coefficient. The implementation steps were the same as the description of Example 2.
sequence,measurement,setting,value
YRVRFLAKENVTQDAEDN [N1],TGF-β (active TGF-β content in lung tissue),active TGF-β,13.15 ± 0.48
same,Lung Coefficient,[1],9.25 ± 0.28
same,tgf-β (mRNA content of tgf-β in lung tissue),tgf-β,2.50 ± 0.04
same,HE Score,[2],2.44 ± 0.24
same,HYP (hydroxyproline content in lung tissue),[3],34.09 ± 5.01
same,HE Score,[4],2.45 ± 0.09
same,Lung Coefficient,[5],8.49 ± 0.09
